Test results from patent US8030493B2, “Monovalent and divalent salts of N-(5-hydroxynicotinoil) -L-glutamic acid exhibiting psychotropic (antidepressant and anxiolytic), neuroprotective, geroprotective and cerebroprotective action” (Obschestvo S Ogranichennoy Otvetstvennostyu “Natsionalnaya …, priority 2006, dated 2011).

Assays:
Assay type in all cases: in vivo
mice SAM P 10 = experiment: Antidepressant activity: forced swimming in mice SAM; settings: 10 mg/kg, first 6 minutes of forced swimming
Description: Exp. Gerontolol. 1997, […]. et al. Age-related deterioration in conditional avoidance task in the SAM-P/10 mouse, an animal model of spontaneous brain atrophy. Brain Res., 1993, v. 608, p. 266-272). To assess depressive condition the method of forced swimming was used (Porsolt R. D. et al., Behavioral despair in rats: a new model sensitive to antidepressant treatment. Europ. J. […] The mice were placed into cylinder 10 cm in diameter and 25 cm height. Cylinder was filled with water by 1⁄3 (27° C.). After unsuccessful attempts to get out of the water the animals have typical immovable posture, which is regarded as manifestation of “despair”.

[1] = tested on: mice exposed to hypobaric hypoxia; experiment: Acute hypobaric hypoxia in flow-exhaust chamber
Description: (§1) White nondescript male mice with body weight 22-28 g were used in the experiments. Each dose level was studied in 10 animals. Control animals received equivalent volume of distilled water. Nooglutyl was used as reference agent. Study compounds were administered intraperitoneally 40 minutes before the experiment.
(§2) Acute hypobaric hypoxia was simulated in flow-exhaust chamber. Pressure was measured with altimeter, and elevation speed with variometer. The animals were “elevated” at the speed 20 m/s to the stage at 11000 m. The exposure lasted 10 minutes. Then the animals were mover down to the baseline level for 5 minutes. Hypoxia with hypercapnia in hermovolume was created by placement of the animal into 200 ml hermetically sealed glass vessels. Life period of the animals under hypoxic conditions was recorded. Each group comprised 10 animals.

rats with amnesia = experiment: Antiamnestic activity: passive avoidance response (PAR) with amnesia by maximum electric shock; settings: rats with electric shock amnesia, 24 hours after learning
Description: White nondescript male rats with body weight 250-280 g were used in the experiments. Each dose level was studied in 10 animals. Control animals received equivalent volume of distilled water. Nooglutyl was used as reference agent. Study compounds were administered intraperitoneally 40 minutes before the experiment. Experiment was carried out on the standard automated unit for passive avoidance response (Passive Avoidance) supplied by Lafayette Instrument Co., (USA) (Ader et al. Retention of a passive avoidance response as a function of the intensity and duration of electric shock. Psycho Sci. 1972, v. 26, p. 125-128; Voronina T. A. et al. “Textbook for Experimental (Preclinical Study) of novel pharmacological compounds”. Moscow, Medicina. 2005, p. 253-263 and 308-320). The unit was designed as small platform situated 1 m above the floor, which was illuminated with special lamp, and dark chamber with electrode floor connected with the platform. The rat was placed on illuminated platform in front of the entry to the dark chamber with its tail directed to the entry; the animal preferred dark chamber and quickly ran into it. In the dark chamber the animal received single pain stimulus with electric current (0.45 mA) and memorized that it was dangerous to enter dark chamber. Duration of the stimulus was determined from the running out of the animal from the dark chamber. To achieve amnesia maximum electric shock was used (50 Hz, 0.2 sec), which was made through corneal electrodes immediately after learning. Electric shock caused obliteration of the memory trace. Test for reproduction of passive avoidance response (PAR) (for retention of memory trace) was performed 24 hours after learning session and electric shock. The animal was placed on illuminated platform once again, and time of the presence on illuminated platform and dangerous dark chamber (no current was conducted to the floor during reproduction of PAR).
Control trained animals with reproduction of PAR without electric shock preferred to stay on illuminated platform. Obliteration of training with electric shock causes amnesia in the animals; as a result, the animals with short latent period enter dark chamber and stay there considerably longer than animals without amnesia (Table 2).

[2] = tested on: mice exposed to hypoxia in hermovolume; experiment: Hypoxia with hypercapnia in hermovolume
Description: as §1, §2

[3] = tested on: rats with hemorrhagic stroke; experiment: Hemorrhagic stroke: reproduction of passive avoidance response; settings: Nimodipin at 01.mg/kg
Excerpt: White nondescript male rats with body weight 200-250 g, which lived in vivarium and had feed (standard palletized feed) and water ad libitum, with natural alternation of day and night, were used in the experiments. Hemorrhagic stroke (local cerebral hemorrhage) was simulated according to method by A. N. Makarenko et al. (Method of local hemorrhage simulation I various structures of the brain in experimental animals. Journal Visshei Nervnoy Deyatelnosti—Journal of Higher Nervous Activities, 2002, v. 52, No 6, p. 765-768). In nembutal-anesthetized rats (40 mg/kg, i.m.) destruction of the brain tissue in capsule interna area was made with the use of special device (mandarin-knife) followed by application of blood (0.02-0.03 ml) taken from under the rat's tongue to the damaged area (within 2-3 minutes). False-operated animals underwent scalping and craniotomy. The animals were divided into 5 groups: intact rats, false-operated rats, animals with hemorrhagic stroke received nooglutyl at 20 mg/kg, and animals with hemorrhagic stroke received Compound I at 20 mg/kg. Effects were recorded within 24 hours and 14 days after the surgery. Learning ability and memory of the rats was examined in the model of passive avoidance response (PAR, Passive Avoidance supplied by Lafayette Instrument Co., USA). To determine neurological deficit in the animals Stroke-index McGrow scale modified by I. V. Gannushkina (Functional architectonics of the brain, Moscow, Medicina, 1977, 224 p.) was used. The severity of the condition was determined by the sum of the points. The number of rats with mild symptoms up to 2.5 points of Stroke-index scale (apathy, weakness of the extremities, unilateral semiptosis, tremor, circus movements) and severe manifestations of neurological disorders (3 to 10 points)—paresis of the extremities, palsy of low extremities, lateral position. The animals received single dose of nooglutyl and Compound I at the same dose 20 mg/kg intraperitoneally within 3-3.5 hours after the surgery. Controlled animals were treated with saline. At onset of the experiment each group comprised 15-20 animals. Mortality of the rats was recorded throughout the observation period (14 days). Statistical analysis was made using parametrical and non-parametrical methods and Biostat software. Nimodipin administered at 01.mg/kg according to above scheme was considered as a standard.

[4] = 30 mg/kg intraperitoneally 40 minutes before the experiment
[5] = 60 mg/kg intraperitoneally 40 minutes before the experiment
[6] = 120 mg/kg intraperitoneally 40 minutes before the experiment
[7] = PAR reproduction within 24 hours
[8] = PAR reproduction within 14 days

Row | Compound | Period of active behaviour (mice SAM P 10) [s] | Life interval of mice (minutes) exposed to hypobaric hypoxia [1, 4] [min] | Life interval of mice (minutes) exposed to hypobaric hypoxia [1, 5] [min] | Time of presence of animals while PAR reproduction (seconds) in the dark chamber (rats with amnesia; 25 mg/kg intraperitoneally) [s] | Time of presence of animals while PAR reproduction (seconds) on the illuminated platform (rats with amnesia; 25 mg/kg intraperitoneally) [s] | Time of presence of animals while PAR reproduction (seconds) in the dark chamber (rats with amnesia; 50 mg/kg intraperitoneally) [s] | Time of presence of animals while PAR reproduction (seconds) on the illuminated platform (rats with amnesia; 50 mg/kg intraperitoneally) [s] | Life interval of mice (minutes) exposed to hypoxia in hermovolume [2, 4] [min] | Life interval of mice (minutes) exposed to hypoxia in hermovolume [2, 5] [min] | Life interval of mice (minutes) exposed to hypoxia in hermovolume [2, 6] [min] | Latent period of entry to dark chamber (c) [3, 7] [c] | Number of animals, which did not enter dark chamber (%) [3, 7] [%] | Latent period of entry to dark chamber (c) [3, 8] [c] | Number of animals, which did not enter dark chamber (%) [3, 8]
1 | CN(C)CCC=C1c2ccccc2CCc2ccccc21 [Amitryptilin, reference compound] | 225.10 ± 25.19 |  |  |  |  |  |  |  |  |  |  |  |  | 
2 | O=C([O-])CC[C@H](NC(=O)c1cncc(O)c1)C(=O)[O-].[Na+].[Na+] [Compound II, di-Na salt of N-(5-hydroxynicotinoyl)-L-glutamic acid] |  | 6.51 ± 0.82 | 5.95 ± 0.84 | 78.7 ± 12.3 | 41.3 ± 11.6 | 67.5 ± 15.1 | 52.5 ± 12.3 | 14.1 ± 0.71 | 16.3 ± 0.64 | 17.8 ± 0.69 |  |  |  | 
3 | O=C([O-])CC[C@H](NC(=O)c1cncc(O)c1)C(=O)[O-].[K+].[K+] [Compound III, di-K salt of N-(5-hydroxynicotinoyl)-L-glutamic acid] |  | 3.91 ± 0.63 | 5.52 ± 0.54 | 70.7 ± 9.4 | 49.3 ± 10.1 | 68.6 ± 7.1 | 51.4 ± 9.8 | 14.2 ± 0.39 | 15.9 ± 0.45 | 17.4 ± 0.65 |  |  |  | 
4 | COCCOC(=O)C1=C(C)NC(C)=C(C(=O)OC(C)C)C1c1cccc([N+](=O)[O-])c1 (centres unmarked) [Nimodipin] |  |  |  |  |  |  |  |  |  |  | 123.7 ± 19.6 | 58 | 77.5 ± 32.8 | 33$ %
